# Assay results taken from ChEMBL document CHEMBL1134059, “Synthesis and antifungal activities of novel 1,3-beta-D-glucan synthase inhibitors. Part 2” (Bioorg Med Chem Lett, 2001).
# Numbered stars: 1 amine (or outer) side, 2 acyl side, 3 side chain; on linkers, the order of the positions; unused ones are H or OH. Bridge positions count the residues as written; N and C are the ends. Square brackets hold non-standard residues; d marks the D form. Peptide text beside a SMILES is read from it. * marks the point of attachment. pTerphenylCO(4''-OnC5H11) = CCCCCOc1ccc(-c2ccc(-c3ccc(C(=O)*)cc3)cc2)cc1; Orn(4R-OH,5R-OH) = O=C([C@H](C[C@@H](O)[C@@H](O)N[*:3])N[*:1])[*:2]; hTyr(3S-OH,4S-OH) = N[C@H](C(=O)O)[C@H](O)[C@@H](O)c1ccc(O)cc1; Pro(3S-OH,4S-Me) = C[C@H]1CN[C@H](C(=O)O)[C@H]1O; Hyp = O=C(O)[C@@H]1C[C@@H](O)CN1
# Columns and labels:
# Mus musculus [1] = assay: In vivo efficacy against Candida albicans CY1002 5E6 cells for systemic candidiasis in mice after iv treatment on day 7; format: functional; settings: CY1002 5E6, iv, 168 h
# Mus musculus [2] = organism: Mus musculus; assay: Hepatotoxicity using inclusion-body formation test in hepatocytes of mice; format: functional, Hepatocyte
# Aspergillus fumigatus = assay: Antifungal activity against Aspergillus fumigatus MTU06002; format: functional
# Candida albicans [3] = assay: In vitro antifungal activity against Candida albicans CY1002; format: functional, organism-based
# Mus musculus [4] = assay: In vivo efficacy against Aspergillus fumigatus CF1083 1E4 conidia/g for pulmonary aspergillosis in mice after iv treatment on day 14; format: functional; settings: 336 h
# Lomentospora prolificans = assay: Antifungal activity against Scedosporium prolificans ATCC 20054; format: functional
# Candida albicans [5] = assay: Antifungal activity against Candida albicans KB fluconazole resistant strain.; format: functional
# Candida albicans [6] = assay: In vitro antifungal activity against Candida albicans CY1002 using 80 percent serum; format: functional, organism-based
# Scedosporium boydii = assay: Antifungal activity against Scedosporium […] IFM40731N.; format: functional
# Candida tropicalis = assay: Antifungal activity against Candida tropicalis ATCC 13803; format: functional
# Pichia kudriavzevii = assay: Antifungal activity against Candida krusei ATCC 20579; format: functional
# Candida albicans [7] = assay: Antifungal activity against Candida albicans ATCC 48130; format: functional
# Beta-1,3-glucan synthase = Beta-1,3-glucan synthase (Candida albicans, UniProt O13428); assay: In vitro inhibitory activity against Beta glucan synthase
# Beta-1,3-glucan synthase, sequence (O13428 whole entry): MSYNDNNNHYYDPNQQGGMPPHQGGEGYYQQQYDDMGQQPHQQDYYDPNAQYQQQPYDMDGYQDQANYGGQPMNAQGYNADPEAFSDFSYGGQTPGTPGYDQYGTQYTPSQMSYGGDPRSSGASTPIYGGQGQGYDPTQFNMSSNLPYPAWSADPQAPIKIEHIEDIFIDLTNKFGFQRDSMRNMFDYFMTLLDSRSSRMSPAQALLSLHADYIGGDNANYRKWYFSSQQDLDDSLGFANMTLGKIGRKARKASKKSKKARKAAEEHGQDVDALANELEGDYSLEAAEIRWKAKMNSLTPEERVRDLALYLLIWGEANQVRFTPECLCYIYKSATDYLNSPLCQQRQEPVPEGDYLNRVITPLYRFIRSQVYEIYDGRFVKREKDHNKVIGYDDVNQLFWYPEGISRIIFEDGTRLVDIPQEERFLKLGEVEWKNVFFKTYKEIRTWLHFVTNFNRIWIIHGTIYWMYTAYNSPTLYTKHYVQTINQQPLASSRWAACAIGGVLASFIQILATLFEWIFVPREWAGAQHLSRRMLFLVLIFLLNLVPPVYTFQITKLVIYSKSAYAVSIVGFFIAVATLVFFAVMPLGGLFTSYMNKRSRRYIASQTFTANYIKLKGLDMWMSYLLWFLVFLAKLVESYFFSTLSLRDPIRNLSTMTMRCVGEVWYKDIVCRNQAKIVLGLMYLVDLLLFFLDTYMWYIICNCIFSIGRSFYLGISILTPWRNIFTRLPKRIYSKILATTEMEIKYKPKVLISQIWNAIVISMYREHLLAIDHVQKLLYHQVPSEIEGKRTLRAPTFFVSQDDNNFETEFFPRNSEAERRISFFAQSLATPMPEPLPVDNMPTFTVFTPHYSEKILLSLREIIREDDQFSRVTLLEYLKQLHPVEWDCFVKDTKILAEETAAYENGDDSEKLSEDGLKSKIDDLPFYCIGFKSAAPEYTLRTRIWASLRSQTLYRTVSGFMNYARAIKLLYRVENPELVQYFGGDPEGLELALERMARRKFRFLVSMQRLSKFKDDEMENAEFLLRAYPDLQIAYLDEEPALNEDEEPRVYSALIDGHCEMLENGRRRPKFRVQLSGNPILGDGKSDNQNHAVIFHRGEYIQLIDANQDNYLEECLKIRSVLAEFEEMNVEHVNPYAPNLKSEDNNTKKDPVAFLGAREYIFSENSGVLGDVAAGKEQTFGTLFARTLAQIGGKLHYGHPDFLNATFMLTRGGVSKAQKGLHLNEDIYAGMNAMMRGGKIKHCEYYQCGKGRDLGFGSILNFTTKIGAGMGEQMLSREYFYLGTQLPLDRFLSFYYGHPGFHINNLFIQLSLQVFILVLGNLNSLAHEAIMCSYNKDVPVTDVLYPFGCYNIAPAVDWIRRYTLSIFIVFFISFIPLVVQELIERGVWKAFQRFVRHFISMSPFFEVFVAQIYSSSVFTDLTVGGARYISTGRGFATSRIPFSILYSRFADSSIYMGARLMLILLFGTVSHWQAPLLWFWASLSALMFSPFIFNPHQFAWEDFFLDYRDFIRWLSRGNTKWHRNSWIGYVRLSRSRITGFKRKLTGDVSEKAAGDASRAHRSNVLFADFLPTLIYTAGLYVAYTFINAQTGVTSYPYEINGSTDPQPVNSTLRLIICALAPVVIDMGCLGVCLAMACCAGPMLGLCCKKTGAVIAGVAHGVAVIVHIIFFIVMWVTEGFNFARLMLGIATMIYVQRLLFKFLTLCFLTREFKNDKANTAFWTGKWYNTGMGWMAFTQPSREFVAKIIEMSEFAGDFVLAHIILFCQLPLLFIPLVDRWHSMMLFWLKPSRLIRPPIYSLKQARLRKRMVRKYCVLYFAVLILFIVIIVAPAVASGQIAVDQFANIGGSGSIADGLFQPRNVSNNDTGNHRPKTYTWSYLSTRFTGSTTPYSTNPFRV
# Nakaseomyces glabratus = assay: Antifungal activity against Candida glabrata ATCC 2001; format: functional
SMILES,ED50 (Mus musculus [1]) [mg/kg],Observed at (Mus musculus [2]) [µg/mL],MIC (Aspergillus fumigatus) [µg/mL],IC50 (Candida albicans [3]) [µg/mL],ED50 (Mus musculus [4]) [mg/kg],MIC (Lomentospora prolificans) [µg/mL],MIC (Candida albicans [5]) [µg/mL],IC50 (Candida albicans [6]) [µg/mL],MIC (Scedosporium boydii) [µg/mL],MIC (Candida tropicalis) [µg/mL],MIC (Pichia kudriavzevii) [µg/mL],MIC (Candida albicans [7]) [µg/mL],"IC50 (Beta-1,3-glucan synthase) [nM]",MIC (Nakaseomyces glabratus) [µg/mL]
"CCCCCOc1ccc(-c2ccc(-c3ccc(C(=O)N[C@H]4C[C@@H](O)[C@@H](O)NC(=O)[C@@H]5[C@@H](O)[C@@H](C)CN5C(=O)[C@H]([C@@H](C)O)NC(=O)[C@H]([C@H](O)[C@@H](O)c5ccc(O)cc5)NC(=O)[C@@H]5C[C@@H](O)CN5C(=O)[C@H]([C@@H](C)O)NC4=O)cc3)cc2)cc1 ({pTerphenylCO(4''-OnC5H11)}-[Orn(4R-OH,5R-OH)]T[Hyp][hTyr(3S-OH,4S-OH)]T[Pro(3S-OH,4S-Me)]; lactam 1-C) [listing 1 of 2 here]",0.22,1,,,,,,,,,,,,
CCCCCCCCCCCCC[C@@H]1CC(=O)N[C@H]([C@@H](C)O)C(=O)N[C@H](C)C(=O)N[C@@H](Cc2ccc(O)cc2)C(=O)N[C@@H](C(C)C)C(=O)N2C[C@H](O)C[C@H]2C(=O)N[C@H]([C@@H](C)O)C(=O)N[C@@H]([C@@H](C)O)C(=O)N2CC[C@H](O)[C@H]2C(=O)N[C@@H]([C@H](O)CC(N)=O)C(=O)NCC(=O)N[C@H]([C@@H](C)O)C(=O)N[C@@H](CCCN(CCCN)C(=O)[C@H](CCCN)N(CCN)CCN)C(=O)O1,0.08,100,0.37,0.45,8.6,0.38,0.35,0.31,0.35,0.63,0.31,0.41,0.28,1
CC[C@H](C)C[C@H](C)CCCCCCCCC(=O)N[C@H]1C[C@@H](O)[C@@H](NCCN)NC(=O)[C@@H]2[C@@H](O)CCN2C(=O)[C@H]([C@H](O)CCN)NC(=O)[C@H]([C@H](O)[C@@H](O)c2ccc(O)cc2)NC(=O)[C@@H]2C[C@@H](O)CN2C(=O)[C@H]([C@@H](C)O)NC1=O,,,,,,,,,,,,,1.3,
CCCCCCCCCCCCC[C@@H]1CC(=O)N[C@H]([C@@H](C)O)C(=O)N[C@H](C)C(=O)N[C@@H](Cc2ccc(O)cc2)C(=O)N[C@@H](C(C)C)C(=O)N2C[C@H](O)C[C@H]2C(=O)N[C@H]([C@@H](C)O)C(=O)N[C@@H]([C@@H](C)O)C(=O)N2CC[C@H](O)[C@H]2C(=O)N[C@@H]([C@H](O)CC(N)=O)C(=O)NCC(=O)N[C@H]([C@@H](C)O)C(=O)N[C@@H](CCCN(CCN)CCN)C(=O)O1,0.05,10,,0.1,13.3,,,0.42,,,,,1.4,
CCCCCCCCCCCCC[C@@H]1CC(=O)N[C@@H]([C@@H](C)O)C(=O)N[C@H](C)C(=O)N[C@@H](Cc2ccc(O)cc2)C(=O)N[C@@H](C(C)C)C(=O)N2C[C@H](O)C[C@H]2C(=O)N[C@@H]([C@@H](C)O)C(=O)N[C@@H]([C@@H](C)O)C(=O)N2CC[C@H](O)[C@H]2C(=O)N[C@@H]([C@H](O)CC(N)=O)C(=O)NCC(=O)N[C@@H]([C@@H](C)O)C(=O)N[C@@H](CCCN(CCN)C(=O)[C@H](CCCN)N(CCN)CCN)C(=O)O1,0.08,100,0.34,0.31,5.2,2.2,0.35,0.24,0.35,0.62,0.28,0.37,0.2,1.3
"CCCCCOc1ccc(-c2ccc(-c3ccc(C(=O)N[C@H]4C[C@@H](O)[C@@H](O)NC(=O)[C@@H]5[C@@H](O)[C@@H](C)CN5C(=O)[C@H]([C@@H](C)O)NC(=O)[C@H]([C@H](O)[C@@H](O)c5ccc(O)cc5)NC(=O)[C@@H]5C[C@@H](O)CN5C(=O)[C@H]([C@@H](C)O)NC4=O)cc3)cc2)cc1 ({pTerphenylCO(4''-OnC5H11)}-[Orn(4R-OH,5R-OH)]T[Hyp][hTyr(3S-OH,4S-OH)]T[Pro(3S-OH,4S-Me)]; lactam 1-C) [listing 2 of 2 here]",,,,0.014,,,,0.55,,,,,,
CCCCCOc1ccc(-c2ccc(-c3ccc(C(=O)N[C@@H]4C[C@@H](O)[C@@H](O)NC(=O)C5[C@@H](OC)[C@@H](OC)CN5C(=O)[C@H]([C@@H](C)O)NC(=O)[C@H]([C@H](O)[C@@H](O)c5ccc(O)cc5)NC(=O)[C@@H]5C[C@@H](O)CN5C(=O)[C@H]([C@@H](C)O)NC4=O)cc3)cc2)cc1 (stereo not given in full),,,,,,,,,,,,,18,
